Assay results as given in patent publication US20260274910A1, “SINGLE FUSION PROTEIN AND PHARMACEUTICAL COMPOSITION” (MEDI&GENE INC., priority 2023, published 2026).

How the values were obtained:
[1] = system: Akt and S6 (phosphorylation, p-Akt/p-S6) in C2C12 mouse skeletal muscle cell line; experiment: Akt and S6 phosphorylation (western blot) in C2C12 muscle cells; type: cell-based; settings: 2 hours
Protocol: In order to evaluate functions related to muscle loss diseases, each test substance was treated to the undifferentiated C2C12 mouse skeletal muscle cell line (mouse myoblast cell line) or the cell line in which differentiation into myotubes was completed. Differentiation of the cell line into myotubes was performed by conducting addition of 2% horse serum to culture medium and replacement with new medium every two days for a total of 4 days.
To the undifferentiated or differentiated cell lines, the test substances, fusion proteins (SEQ ID NOs: 1, 2, 3, 7, 14 and 15) were treated at a concentration of 100 nM (Control: PBS treated group) for 2 hours. Thereafter, the cells were immediately washed once and the cells were lysed with RIPA buffer (Radioimmunoprecipitation assay buffer). The activity of Akt and S6 (phosphorylation, p-Akt/p-S6) was observed by western blot. Akt phosphorylation is a well-known marker of activation of cell signaling pathways, and is an indicator of beneficial effects on muscle cells such as promotion of glucose metabolism and promotion of muscle biosynthesis. Similarly, S6 phosphorylation is a well-known marker of mTOR activity, and the activity of mTOR is an indicator showing muscle biosynthesis and various cell signaling pathways.

[2] = system: diet-induced obesity-induced impaired glucose tolerance mice; experiment: Diet-induced obesity-induced impaired glucose tolerance model (glucose tolerance test); type: in vivo, C57BL/6N mice; settings: 5.0 mg/kg 1 hour before intraperitoneal 20% glucose, after 8 hours fasting
Protocol: In order to secure an impaired glucose tolerance model, conditions causing glucose metabolic disorders in mice by diet-induced obesity were designed. As an animal model, 5-week-old male C57BL/6N mice were obtained and after undergoing an acclimation period by providing a normal diet for 1 week, they were used, and the housing conditions were maintained at 18~24° C., 50~60% humidity, and ad libitum feeding with free access to feed and water was carried out during both the acclimation period and experimental period.
In order to induce impaired glucose tolerance to the mice which had undergone the acclimation period of 1 week, a high-fat diet was supplied to induce obesity. The high-fat diet was provided by preparing as Table 10 below.
The obesity-induced mice were divided into a control group (negative control group; n=14) and an experimental group (fusion protein SEQ ID NOs: 14, 15; No. 14: n=9, No. 15: n=9) and subjected to fasting for 8 hours. Thereafter, PBS to the control, and the fusion protein to the experimental group were administered at a concentration of 5.0 mg/kg, and after 1 hours, a 20% glucose solution was intraperitoneally injected. Blood was collected at each time point and analyzed using a glucometer.

[3] = system: MDA-MB-231 triple-negative breast cancer cell line; experiment: MTT cell viability in breast cancer cells; type: cell-based; settings: 1 μM, 48 hours; compared with Control (PBS), SEQ ID NO: 4 and SEQ ID NO: 5
Protocol: Next, the test substances, the fusion proteins (SEQ ID NO: 1, 2, 3, 7, 14, 15) and shortened sequences (SEQ ID NOs: 9, 10, 11, 12) were treated to MDA-MB-231 triple-negative breast cancer cell line at a concentration of 1 μM (Control: PBS) for 48 hours. Thereafter, the cells were washed with PBS once, and the cells were suspended in serum-free buffer. The MTT (3-[4,5-dimethylthiazol-2-yl]-2,5-diphenyltetrazolium bromide) substance was added thereto at 0.5 mg/ml and incubated at 37° C. for 2 hours. Then, they were washed with PBS once, and the cells were lysed with DMSO for 15 minutes. The solution was transferred to a new plate and the absorbance was measured at 590 nm using a microplate reader.

[4] = system: follicular cells (dermal papilla cells); experiment: Follicular cell proliferation by MTT assay; type: cell-based; settings: 100 nM, 24 hours; compared with Control (PBS)
Protocol: Whether the test substances of the present invention has effects on preventing hair loss or promoting hair growth was evaluated as follows. Specifically, it was observed whether they have efficacy of improving loss of follicular cells in scalp tissue which is a cause of hair loss, or hair growth due to an increase in hair follicles, by using dermal papilla cells and evaluating cell proliferation of follicular cells.
The follicular cells were treated with each test substance 100 nM (control: PBS) for 24 hours, and the degree of cell proliferation was evaluated by MTT assay.

[5] = system: sciatic nerve transection mouse model; experiment: Sciatic nerve transection muscle atrophy model; type: in vivo, C57BL/6 male mice; settings: versus control; for Grip strength: 5.0 mg/kg subcutaneous 6 times a week for 9 weeks; for Muscle mass (DXA assay): 5.0 mg/kg subcutaneous 6 times a week, fourth week
Protocol: The effects of the test substances on muscle diseases accompanied by muscle loss were evaluated using a sciatic nerve transection mouse model.
In the sciatic nerve transection mouse model, muscle atrophy was induced as follows. The thigh muscles of C57BL/6 male mice were transversely incised to expose sciatic nerves, and then the sciatic nerves were transected to weaken the nerves in the muscle tissue and induce muscle atrophy. The incised site was sutured, and a recovery period of one week was provided after the surgery.
To each mouse after the recovery period, the test substance (Control-PBS; and fusion protein) assigned to each group was subcutaneously injected at a concentration of 5.0 mg/kg 6 times a week for 9 weeks (Control: n=8, No. 13: n=9, No. 14: n=9, No. 15: n=8). The effects of improving muscle loss were measured with an X-ray body composition analyzer (DXA assay) in the fourth week of test substance administration, and the effects of improving muscle function was compared by measuring grip strength.

MDA-MB-231 cell line = experiment: Reactive oxygen generation (DCF-FA) in breast cancer cells; type: cell-based; settings: 1 μM, 24 hours; compared with Control and SEQ ID NO: 5
Protocol: In addition, in order to examine generation of reactive oxygen that plays an important role in cancer cell death, each test substance was treated to the MDA-MB-231 cell line at a concentration of 1 μM (Control: PBS) for 24 hours. Then, the cells were stained with DCF-FA and their fluorescence values were observed and compared at 485/535 nm.

cAMP (cyclic AMP) = experiment: cAMP level (hTRF) in undifferentiated 3T3-L1 cells; type: cell-based, mouse; settings: undifferentiated 3T3-L1, 100 nM with 0.5 mM IBMX, 30 minutes; compared with Control and SEQ ID NO: 5
Protocol: (§1) To observe the functionality of the fusion proteins related to lipid metabolism, the 3T3-L1 mouse pre-adipocyte cell line was used as the cell line itself (undifferentiated) or by differentiating into adipocytes. Differentiation into the adipocytes was performed by inducing primary differentiation for the 3T3-L1 cells in a medium containing DMEM, 10% FBS, 10 μg/ml insulin, 0.5 mM IBMX (3-Isobutyl-1-methylxanthine), and 1 μM dexamethasone for 2 days, and inducing secondary differentiation with a medium containing DMEM, 10% FBS, and 10 μg/ml insulin for the remaining 4 days. The adipocytes in which differentiation was finally completed were treated with the test substances at a concentration of 100 nM for 30 hours (Control: PBS) and then used for each test.
Next, changes in cAMP (cyclic AMP), a signaling mediator contributing to lipolysis and energy metabolism were evaluated in the undifferentiated adipocytes. The undifferentiated cells were treated with the test substances at a concentration of 100 nM (Control: PBS) with 0.5 mM IBMX for 30 minutes. Thereafter, the level of cAMP was evaluated by the hTRF (Homogeneous Time Resolved Fluorescence) method (using CAMP Gs dynamic kit from Cisbio). As a result of the measurement, it was confirmed that the level of cAMP was higher in the groups treated with the fusion proteins (SEQ ID NOs: 1, 2, 3, 7, 13, 14, 15) and shortened sequences (sequences 9, 10, 11) compared with the Control and His tag-wild-type substance (1-81) (SEQ ID NO: 5) (FIG. 7).

3T3-L1 adipocytes = experiment: Lipid droplet analysis (BODIPY 493/503, confocal) in 3T3-L1 adipocytes; type: cell-based, mouse; settings: differentiated 3T3-L1 adipocytes, 100 nM, 30 hours
Protocol: as §1
In addition, lipid droplets of adipocytes were stained with BODIPY 493/503 dye sample, and then confocal image scanning was performed to analyze the size and diameter of the lipid droplets.

plasma proteins = experiment: Plasma protein binding test (PPB); type: in vitro ADME, mice; settings: mouse plasma, 5 uM, 37° C., 4 hours, 100 kD filter, western blot
Protocol: Such an increase in half-life was further confirmed by measuring plasma protein binding rates (Plasma protein binding test, PPB). […] Each of the plasma of the mice and the fusion protein (SEQ ID NO: 13), and or His tag-wild-type substance (1-81) (SEQ ID NO: 5) was incubated at a concentration of 5 uM at 37° C. for 4 hours. After that, they were centrifuged with a 100 kD filter to obtain fractions of the substance bound to the plasma proteins or fractions of the unbound substance. Each of the obtained fractions was evaluated by western blot.

[6] = Half-life in mice, NIR dye-conjugated substance, plasma fluorescence
Protocol: For evaluation, ten-week-old C57BL/6 mice were used, and the mice were reared in a specialized animal facility which provided a normal diet and a 12/12 hour night/day cycle and then used for experimentation.
The synthetic peptide (SEQ ID NO: 8) and fusion protein (SEQ ID NO: 13) were each injected into the mice at a concentration of 2.5 mg/kg, and blood was collected at 0, 0.5, 2, 4, 24 hours after injection. The collected blood was centrifuged and the obtained plasma was analyzed. At this time, in order to perform effective quantification of the substances, each substance was conjugated with Dylight 680 Near-Infrared dye (NIR) in advance prior to injection, and the finally collected blood samples were examined by observing fluorescent signals with a SpectraMax i3 microplate reader device.

[7] = system: UCP-1 (uncoupling protein 1); experiment: UCP-1 expression (RT-PCR) in differentiated 3T3-L1 adipocytes; type: cell-based, mouse; settings: 100 nM, 30 hours
Protocol: as §1
UCP-1 (uncoupling protein 1) is a representative biomarker related to thermogenesis, indicating browning and energy metabolism activation of adipocytes. In order to observe changes in expression of UCP-1 mRNA and protein by treatment of the fusion proteins, mRNA and protein were isolated from the cells treated with each test substance and RT-PCR and western blot were performed.

[8] = Table 6, C2C12, 100 nM, differentiation state not given

Substance	Activity (% increase compared to control) Akt [1, 8] [%]	Activity (% increase compared to control) S6 [1, 8] [%]	Activity of Akt and S6 compared with control and His tag-wild-type substance (SEQ ID NO: 5) ([1]; differentiated cell line, 100 nM)	Blood glucose variation over time (GLUAUC) compared with the control group [2]	Cell viability (MTT) [3]	Cell viability (MTT, cell proliferation) [4]	Grip strength [5]	Muscle mass (DXA assay) [5]	Reactive oxygen generation (MDA-MB-231 cell line)	Level of cAMP (cAMP (cyclic AMP))	Lipid droplet size (3T3-L1 adipocytes)	Maximum lipid droplet diameter per cell (3T3-L1 adipocytes)	Total lipid droplet area (3T3-L1 adipocytes)	Binding rate with the plasma proteins (plasma proteins) [%]	Half-life increase of fusion protein versus synthetic peptide (SEQ ID NO: 8) ([6]; 2.5 mg/kg)	Half-life ([6]; injected at 2.5 mg/kg, Dylight 680 NIR-conjugated, plasma at 0, 0.5, 2, 4, 24 hours) [h]	mRNA level of UCP-1 [7]
SEQ ID NO: 15: Recombinant protein: Shortened substance (1-47)-Shortened linker-Fc fusion	548	232	significantly higher activity	significant difference	significantly low	significantly increased	higher performance	significantly increased	generated higher	higher							
SEQ ID NO: 13: Recombinant protein: Wild-type substance (1-81)-Shortened linker-Fc fusion						significantly increased	higher performance	significantly increased	generated higher	higher	reduced at a significant level	reduced at a significant level	reduced at a significant level	74	approximately 11.8 times	18.9	significantly increased
